Test results published in patent US20170121344A1 (Siga Technologies, Inc., priority 2009, published 2017).
pEC50: −log10 of the molar value. Counter-ions that a name gives are not always drawn. Like-named read-outs stand apart in the source and are kept apart here.

Test system: Dengue-2 (Strain New Guinea C)
Assay: Viral yield assay against Dengue-2 in Vero cells
Type: cell-based, Dengue virus
Details: for EC50: read-out: Activity (EC50 in μM) DENV-2; for pEC50: read-out: Activity (EC50 class) against Dengue-2 Virus in Vero cells
Procedure, shortened: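 Infect Vero cells with virus (MOI 0.1), add compound or DMSO, incubate at 37° C, collect progeny at 48 hours post infection, then titrate on Vero cells to obtain EC50.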

[1] = Dengue virus, DENV2, viral yield assay, Vero cells, MOI 0.1, 48 hours post infection
[2] = Dengue virus, Vero cells, MOI 0.1, harvested 48 hours post infection
[3] = Dengue virus, DENV2, Vero, 48 h

| Structure (SMILES) | EC50 [1] [µM] | pEC50 [2] | further results |
| --- | --- | --- | --- |
| Nc1c(C(=O)Nc2ccccc2F)sc2nc(-c3ccc4c(c3)OCO4)ccc12 [Compound 538, 3-amino-6-(1,3-benzodioxol-5-yl)-N-(2-fluorophenyl)thieno[2,3-b]pyridine-2-carboxamide] | < 5 |  |  |
| Cc1cc(C)c2c(C)c(C(=O)NCc3ccco3)sc2n1 [Compound 389, N-(2-furylmethyl)-3,4,6-trimethyl-thieno [2,3-b]pyridine-2-carboxamide] | 5 to 25 |  |  |
| COCc1cc(C)nc2sc3c(=O)n(-c4ccc(C(C)=O)cc4)nnc3c12 [Compound 156, 3-(4-Acetyl-phenyl)-9-methoxymethyl-7-methyl-3H-pyrido[3′,2′:4,5]thieno[3,2-d][1,2,3]triazin-4-one] |  | < 4.60 |  |
| Nc1c(C(=O)Nc2cc(Cl)ccc2Cl)sc2nc(-c3ccc(Cl)cc3)ccc12 [Compound 347, 3-amino-6-(4-chlorophenyl)-N-(2,5-dichloro-phenyl)thieno [2,3-b]pyridine-2-carboxamide] | < 5 |  |  |
| Nc1c(C(=O)N2CCCCC2)sc2nc3c(cc12)CCC3 [Compound 188, (3-Amino-6,7-dihydro-5H-cyclopenta[b]thieno[3,2-e]pyridin-2-yl)-piperidin-1-yl-methanone] |  | < 4.60 |  |
| CC(=O)c1cnc2sc(C(=O)N(CCc3ccccc3)Cc3cccs3)c(C)c2c1 [Compound 390, 5-acetyl-3-methyl-N-phenethyl-N-(2-thienylmethyl)thieno[2,3-b]pyridine-2-carboxamide] | < 5 |  |  |
| CC(C)N1CCc2nc3sc(C(=O)Nc4ccc(OC(F)(F)F)cc4)c(N)c3cc2C1 [Compound 59, 3-Amino-6-isopropyl-5,6,7,8-tetrahydro-thieno[2,3-b][1,6]naphthyridine-2-carboxylic acid (4-trifluoromethoxy-phenyl)-amide] |  | > 5.30 |  |
| Cc1c(C(=O)Nc2nccs2)sc2nc(-c3cccs3)cc(C(F)(F)F)c12 [Compound 386, 3-methyl-N-thiazol-2-yl-6-(2-thienyl)-4-(trifluoromethyl)thieno[2,3-b]pyridine-2-carboxamide] |  |  | EC50 [3]: < 5 µM |
| Nc1c(C(=O)N2CCOCC2)sc2nc3c(cc12)CCCCC3 [Compound 139, (3-Amino-6,7,8,9-tetrahydro-5H-1-thia-10-aza-cyclohepta[f]inden-2-yl)-morpholin-4-yl-methanone] |  |  | pEC50 (Dengue virus, Vero, 48 h): < 4.60 |
| CCOC(=O)c1cc(NC(=O)c2sc3nc(C)cc(COC)c3c2N)ccc1Cl [Compound 240, 5-[(3-Amino-4-methoxymethyl-6-methyl-thieno[2,3-b]pyridine-2-carbonyl)-amino]-2-chloro-benzoic acid ethyl ester] |  | < 4.60 |  |
| COc1cccc(-c2ccc3c(N)c(C(=O)Nc4ccc(F)cc4C)sc3n2)c1 [Compound 551, 3-amino-N-(4-fluoro-2-methyl-phenyl)-6-(3-methoxyphenyl)thieno[2,3-b] pyridine-2-carboxamide] | < 5 |  |  |
| Nc1c(C(=O)Nc2nnc(-c3ccccc3)s2)sc2nc3c(cc12)CNCCC3 [Compound 52, 3-Amino-6,7,8,9-tetrahydro-5H-1-thia-6,10-diaza-cyclohepta[f]indene-2-carboxylic acid (5-phenyl-[1,3,4]thiadiazol-2-yl)-amide hydrochloride] |  | > 5.30 |  |
| COc1cccc(-c2ccc3c(N)c(C(=O)Nc4ccc(C)cc4Br)sc3n2)c1 [Compound 627, 3-amino-N-(2-bromo-4-methyl-phenyl)-6-(3-methoxyphenyl)thieno[2,3-b] pyridine-2-carboxamide] | < 5 |  |  |
| NC(=O)c1sc2nc3c(c(-c4cccs4)c2c1N)CCCC3 [Compound 195, 3-Amino-4-thiophen-2-yl-5,6,7,8-tetrahydro-thieno[2,3-b]quinoline-2-carboxylic acid amide] |  | < 4.60 |  |
| NC(=O)c1sc2nc(-c3cccnc3)ccc2c1N [Compound 164, 3-Amino-6-pyridin-3-yl-thieno[2,3-b]pyridine-2-carboxylic acid amide] |  | < 4.60 |  |
| C=CCn1cnc2c(sc3nc4c(cc32)COC(C)(C)C4)c1=O [Compound 202, 2-Allyl-8,8-dimethyl-8,9-dihydro-2H,6H-7-oxa-11-thia-2,4,10-triaza-benzo[b]fluoren-1-one] |  | < 4.60 |  |
| COc1cccc(-c2ccc3c(N)c(C(=O)Nc4cc(Cl)cc(Cl)c4)sc3n2)c1 [Compound 564, 3-amino-N-(3,5-dichlorophenyl)-6-(3-methoxyphenyl)thieno[2,3-b]pyridine-2-carboxamide] | < 5 |  |  |
| CC(=O)N(CCN)c1c(C(=O)Nc2nnc(-c3ccccc3)s2)sc2nc3c(cc12)CCCCC3 [Compound 314, 3-(N-(2-amino-ethyl)acetamido)-N-(5-phenyl-1,3,4-thiadiazol-2-yl)-6,7,8,9-tetrahydro-5H-cylcohepta[b]thieno[3,2-e]pyridine-2-carboxamide] |  |  | EC50 (Vero cells): < 5 µM |

| Structure (SMILES) | EC50 [1] [µM] | pEC50 [2] | further results |
| --- | --- | --- | --- |
| Nc1c(C(=O)Nc2ccc(F)c(Cl)c2)sc2nc(-c3ccc(F)cc3)ccc12 [Compound 613, 3-amino-N-(3-chloro-4-fluoro-phenyl)-6-(4-fluorophenyl)thieno[2,3-b]pyridine-2-carboxamide] | < 5 |  |  |
| Cc1cc(C)c2c(N)c(C(=O)NCCc3ccccc3)sc2n1 [Compound 257, 3-Amino-4,6-dimethyl-thieno[2,3-b]pyridine-2-carboxylic acid phenethyl-amide] |  |  | pEC50 (Dengue virus, Vero, 48 h): < 4.60 |
| N#Cc1c(N)nc2sc(C(=O)Nc3nc(-c4ccccc4)cs3)c(N)c2c1-c1ccco1 [Compound 383, 3,6-diamino-5-cyano-4-(2-furyl)-N-(4-phenylthiazol-2-yl)thieno[2,3-b]pyridine-2-carboxamide] | < 5 |  |  |
| COc1ccc(-c2ccc3c(N)c(C(=O)Nc4ccc(F)cc4)sc3n2)cc1OC [Compound 541, 3-amino-6-(3,4-dimethoxyphenyl)-N-(4-fluorophenyl)thieno[2,3-b]pyridine-2-carboxamide] |  |  | EC50 [3]: < 5 µM |
| CN1CCc2nc3sc(C(=O)NCc4ccc5c(c4)OCO5)c(N)c3cc2C1 [Compound 269, 3-Amino-6-methyl-5,6,7,8-tetrahydro-thieno[2,3-b][1,6]naphthyridine-2-carboxylic acid (benzo[1,3]dioxol-5-ylmethyl)-amide] |  | < 4.60 |  |
| COc1cccc(-c2ccc3c(N)c(C(=O)Nc4ccc(F)c(Cl)c4)sc3n2)c1 [Compound 526, 3-amino-N-(3-chloro-4-fluoro-phenyl)-6-(3-methoxyphenyl)thieno[2,3-b] pyridine-2-carboxamide] | < 5 |  |  |
| COc1ccc(-c2ccc3c(N)c(C(=O)Nc4ccc(Cl)c(C(F)(F)F)c4)sc3n2)cc1OC [Compound 585, 3-amino-N-[4-chloro-3-(trifluoromethyl)phenyl]-6-(3,4-dimethoxyphenyl)thieno [2,3-b]pyridine-2-carboxamide] | < 5 |  |  |
| Cc1cc(C)c2c(C)c(C(=O)N3CCc4ccccc4C3)sc2n1 [Compound 408, 3,4-dihydro-1H-isoquinolin-2-yl-(3,4,6-trimethylthieno[2,3-b]pyridin-2-yl) methanone] | > 25 |  |  |
| CN1CCc2nc3sc(C(=O)NCc4ccccc4)c(N)c3cc2C1 [Compound 106, 3-Amino-6-methyl-5,6,7,8-tetrahydro-thieno[2,3-b][1,6]naphthyridine-2-carboxylic acid benzylamide] |  |  | pEC50 (Dengue virus, Vero, 48 h): 4.60 to 5.30 |
| COc1ccc(CNC(=O)c2sc3nc4c(cc3c2N)CN(C)CC4)cc1OC [Compound 279, 3-Amino-6-methyl-5,6,7,8-tetrahydro-thieno[2,3-b][1,6]naphthyridine-2-carboxylic acid 3,4-dimethoxy-benzylamide] |  | < 4.60 |  |
| NCCCNc1c(C(=O)Nc2nnc(-c3ccccc3)s2)sc2nc3c(cc12)CCCCC3 [Compound 313, 3-((3-aminopropyl)amino)-N-(5-phenyl-1,3,4-thiadiazol-2-yl)-6,7,8,9-tetrahydro-5H-cyclohepta[b]thieno[3,2-e]pyridine-2-carboxamide] |  |  | EC50 (Dengue virus, DENV2, Vero cells): < 5 µM |
| COc1ccc(NC(=O)c2sc3nc4c(c(-c5ccccc5)c3c2N)CN(C)CC4)cc1 [Compound 50, 3-Amino-6-methyl-4-phenyl-5,6,7,8-tetrahydro-thieno[2,3-b][1,6]naphthyridine-2-carboxylic acid (4-methoxy-phenyl)-amide] |  | > 5.30 |  |
| CCN(CC)C(=O)c1sc2nc3c(cc2c1N)CN(C(C)C)CC3 [Compound 271, 3-Amino-6-isopropyl-5,6,7,8-tetrahydro-thieno[2,3-b][1,6]naphthyridine-2-carboxylic acid diethylamide] |  |  | pEC50 (Dengue virus, Vero, 48 h): < 4.60 |
| COc1cc(-c2c(C#N)c(N)nc3sc(C(N)=O)c(N)c23)cc(OC)c1OC [Compound 155, 3,6-Diamino-5-cyano-4-(3,4,5-trimethoxy-phenyl)-thieno[2,3-b]pyridine-2-carboxylic acid amide] |  | < 4.60 |  |
| CN1CCc2nc3sc(C(=O)Nc4ccccc4Cl)c(N)c3cc2C1 [Compound 19, 3-Amino-6-methyl-5,6,7,8-tetrahydro-thieno[2,3-b][1,6]naphthyridine-2-carboxylic acid (2-chloro-phenyl)-amide] |  | > 5.30 |  |
| Cc1ccc(-c2ccc3c(N)c(C(=O)Nc4ccccc4F)sc3n2)cc1 [Compound 649, 3-amino-N-(2-fluorophenyl)-6-(p-tolyl) thieno[2,3-b]pyridine-2-carboxamide] | < 5 |  |  |
| COCc1cc(C)nc2sc(C(=O)Nc3ccc(C(=O)OC)cc3)c(N)c12 [Compound 239, 4-[(3-Amino-4-methoxymethyl-6-methyl-thieno[2,3-b]pyridine-2-carbonyl)-amino]-benzoic acid methyl ester] |  |  | pEC50 (Dengue virus, Vero, 48 h): < 4.60 |
| Nc1c(C(=O)Nc2ccc(C(=O)O)cc2)sc2nc(-c3ccc(Cl)cc3)ccc12 [Compound 334, 4-[[3-amino-6-(4-chlorophenyl)thieno [2,3-b]pyridine-2-carbonyl]amino] benzoic acid] | < 5 |  |  |
